In ChEMBL document CHEMBL1132017, “In vitro susceptibility of Helicobacter pylori to trifluoromethyl ketones” (1999):
Values after ≈ are worked out from the molar mass of the structure shown.

What follows are molecules tested on Helicobacter pylori (assay: In vitro inhibitory activity evaluated against Helicobacter pylori (HP)).
Format: functional
`O=C(Cc1ccccc1)C(F)(F)F` showed an MIC50 of over 100 µg/mL.
With `O=C(c1ccccc1)C(F)(F)F` the MIC50 was over 100 µg/mL.
`O=C(Cc1ccccn1)C(F)(F)F` was tested, and the MIC50 was over 100 µg/mL.
`CC(=O)Cc1nc2ccccc2o1` was tested, and the MIC50 was 51 µg/mL (≈ 291 µM).
`Cc1nc(CC(=O)C(F)(F)F)oc1C` was tested, and the MIC50 was over 100 µg/mL.
Work on `O=C(c1cccs1)C(F)(F)F` yielded an MIC50 of 53 µg/mL (≈ 294 µM).
`O=C(Cc1nc2ccccc2s1)C(F)(F)F` was tested, and the MIC50 was 70 µg/mL (≈ 285 µM).
For `O=C(c1nc2ccccc2o1)C(F)(F)F`, the MIC50 was over 100 µg/mL.
With `Cn1c(C(=O)C(F)(F)F)cnc1-c1ccccc1` the MIC50 was over 100 µg/mL.
`O=C(c1ccc[nH]1)C(F)(F)F` was tested, and the MIC50 was over 100 µg/mL.
With `O=C(c1c[nH]c2ccccc12)C(F)(F)F` the MIC50 was 12 µg/mL (≈ 56.3 µM).
`O=C(Cc1nc2ccccc2o1)C(F)(F)F` was tested, and the MIC50 was 3.6 µg/mL (≈ 15.7 µM).
`O=C(Cc1nc2ccccc2[nH]1)C(F)(F)F` gave an MIC50 of 52 µg/mL (≈ 228 µM).
In the case of `CC[C@H]1OC(=O)[C@H](C)[C@@H](O[C@H]2C[C@@](C)(OC)[C@@H](O)[C@H](C)O2)[C@H](C)[C@@H](O[C@@H]2O[C@H](C)C[C@H](N(C)C)[C@H]2O)[C@](C)(OC)C[C@@H](C)C(=O)[C@H](C)[C@@H](O)[C@]1(C)O` [CLARITHROMYCIN], the MIC50 is reported as 1.9 µg/mL (≈ 2.54 µM).
For `CC[C@H]1OC(=O)[C@H](C)[C@@H](O[C@H]2C[C@@](C)(OC)[C@@H](O)[C@H](C)O2)[C@H](C)[C@@H](O[C@@H]2O[C@H](C)C[C@H](N(C)C)[C@H]2O)[C@](C)(O)C[C@@H](C)C(=O)[C@H](C)[C@@H](O)[C@]1(C)O` [ERYTHROMYCIN], the MIC50 was 1.8 µg/mL (≈ 2.45 µM).
`Cc1ncc([N+](=O)[O-])n1CCO` [METRONIDAZOLE] was tested, and the MIC50 was 74 µg/mL (≈ 432 µM).
